{"source": "patent US9487530B2", "about": "“Transient protection of normal cells during chemotherapy” (G1 Therapeutics, Inc., priority 2013, dated 2016)", "key": {"[1]": {"tested_on": "456 (395 non-mutant) kinases", "assay": "DiscoveRx KINOMEscan profiling", "assay_type": "binding", "settings": "1000 nM", "experimental": "The compound was screened using a single concentration of 1000 nM (>1000 times the 1050 on Cdk4). Results from this screen confirmed the high potency against Cdk4 and high selectivity versus Cdk2."}, "[2]": {"tested_on": "Rb-positive cell line (WM2664 or tHS68)", "assay": "EdU proliferation, RB-intact Cdk4/6-dependent cell line", "assay_type": "cell-based", "settings": "24 hours treatment", "experimental": "(§1) The effect of Cdk4/6 inhibition on proliferation was measured by EdU incorporation. An RB-intact, Cdk4/6-dependent cell line (WM2664 or tHS68) and a panel of RB-negative SCLC cell lines (H69, H82, H209, H345, NCI417, or SHP-77) were analyzed for growth inhibition by the various CDK4/6 inhibitors."}, "[3]": {"tested_on": "whole bone marrow, HSPC and differentiated hematopoietic cells", "assay": "EdU incorporation in mouse hematopoietic cell lineages", "assay_type": "in vivo", "settings": "150 mg/kg oral gavage; for inhibition at 150 mg/kg: Mus musculus", "experimental": "Ten-hours later, all mice were given a single i.p. injection of 100 mcg EdU (5-ethynyl-2′-deoxyuridine) to label cells in S-phase of the cell cycle. All treated mice were euthanized 2 hours after EdU injection, bone marrow cells were harvested and processed for flow cytometric analysis of EdU-incorporation (FIG. 13)."}, "[4]": {"tested_on": "RB-negative SCLC cell lines (H69, H82, H209, H345, NCI417, SHP-77)", "assay": "EdU proliferation, RB-negative SCLC cell lines", "assay_type": "cell-based, human", "settings": "24 hours treatment", "experimental": "as §1"}, "[5]": {"tested_on": "tHS68 cells (CDK4/6-dependent cell line)", "assay": "Cell cycle arrest (propidium iodide), tHS68", "assay_type": "cell-based", "settings": "300 nM for 24 hours", "text": "To test the ability of Cdk4/6 inhibitors to induce a clean G1-arrest, a cell based screening method was used consisting of two Cdk4/6-dependent cell lines (tHS68 and WM2664; Rb-positive) and one Cdk4/6-independent (A2058; Rb-negative) cell line. […] At the conclusion of the experiment, cells were harvested, fixed, and stained with propidium iodide (a DNA intercalator), which fluoresces strongly red (emission maximum 637 nm) when excited by 488 nm light. Samples were run on Dako Cyan flow cytometer and >10,000 events were collected for each sample. Data were analyzed using FlowJo 2.2 software developed by TreeStar, Inc."}, "[6]": {"assay": "Mouse pharmacokinetics, oral gavage and intravenous", "assay_type": "in vivo"}, "blood cell counts": {"tested_on": "blood cell counts", "assay": "5FU-induced myelosuppression, single dose", "assay_type": "in vivo, mouse", "settings": "150 mg/kg oral, 30 minutes before 5FU 150 mg/kg i.p.", "experimental": "Complete blood cell counts were measured every two days starting on day six."}, "HSPCs": {"tested_on": "HSPCs", "assay": "Bone marrow HSPC proliferation by EdU incorporation and flow cytometry", "assay_type": "in vivo, mouse", "experimental": "Mice were then sacrificed at the indicated times (0, 12, 24, 36, or 48 hours following compound administration), and bone marrow was harvested (n=3 mice per time point), as previously described (Johnson et al. J. Clin. Invest. (2010) 120(7), 2528-2536). Four hours before the bone marrow was harvested, mice were treated with 100 μg of EdU by intraperitoneal injection (Invitrogen). Bone marrow mononuclear cells were harvested and immunophenotyped using previously described methods and percent EdU positive cells were then determined (Johnson et al. J. Clin. Invest. (2010) 120(7), 2528-2536). In brief, HSPCs were identified by expression of lineage markers (Lin−), ScaI (S+), and c-Kit (K+).\nFour hours before animals were sacrificed and the bone marrow was harvested, mice were treated with 100 μg of EdU by intraperitoneal injection. Three mice per group were sacrificed at 12 hours and the remaining three animals per group were sacrificed at 24 hours. Results are shown in FIG. 6A as the ratio of EdU positive cells for treated animals at 12 or 24 hour time points compared to control.\nFurther experiments were completed with Compound T examining dose response and longer periods of compound treatment. […] […].\nBoth compounds were administered at 150 mg/kg by oral gavage. One hour prior to harvesting bone marrow, EdU was IP injected to label cycling cells. Bone marrow was harvested at 12, 24, 36, and 48 hours after compound treatment and the percentage of EdU positive HSPC cells was determined at each time point."}, "[7]": {"tested_on": "Rb phosphorylation at Ser780 and Ser807/811", "assay": "Rb phosphorylation western blot", "assay_type": "cell-based", "settings": "300 nM; Rb-dependent cell lines (tHS68, WM2664); by 16 hours post exposure", "experimental": "The Cdk4/6-cyclin D complex is essential for progression from G1 to the S-phase of the DNA cell cycle. This complex phosphorylates the retinoblastoma tumor suppressor protein (Rb). […] Samples were lysed and protein was assayed by western blot analysis. Rb phosphorylation was measured at two sites targeted by the Cdk4/6-cyclin D complex, Ser780 and Ser807/811 using species specific antibodies."}, "[8]": {"tested_on": "telomerized human diploid fibroblasts (tHDFs; tHS68)", "assay": "Protection from chemotherapy-induced cell death, DNA damage and caspase activation in fibroblasts", "assay_type": "cell-based", "experimental": "Cell survival was determined by Cell TiterGlo assay per manufacturer's recommendations. For both γ-H2AX and caspase 3/7 assays, cells were plated and allowed to become adherent for 24 hours. […] For γ-H2AX, cells were harvested for analysis 8 hours after chemotherapy exposure. For the γ-H2AX assay, cells were fixed, permeabilized, and stained with anti-γ-H2AX as per the γ-H2AX Flow Kit (Millipore) and quantitated by flow cytometry. Data was analyzed using FlowJo 2.2 software developed by TreeStar, Inc. For the in vitro caspase 3/7 assay, cells were harvested 24 hours post chemotherapy treatment. Caspase 3/7 activation was measured using the Caspase-Glo® 3/7 Assay System (Promega) per manufacturer's recommendations."}, "[9]": {"tested_on": "human renal proximal tubule cells", "assay": "gamma-H2AX and caspase 3/7 in renal proximal tubule cells with cisplatin", "assay_type": "cell-based", "experimental": "Normal renal proximal tubule epithelial cells were obtained from American Type Culture Collection (ATCC, Manassas, Va.). Cells were grown in an incubator at 37° C. in a humidified atmosphere of 5% CO2 in Renal Epithelial Cell Basal Media (ATCC) supplemented with Renal Epithelial Cell Growth Kit (ATCC) in 37° C. humidified incubator. […] For the γ-H2AX assay, cells were fixed, permeabilized, and stained with anti-γ-H2AX as per the γ-H2AX Flow Kit (Millipore) and quantitated by flow cytometry. Data was analyzed using FlowJo 2.2 software developed by TreeStar, Inc. Caspase 3/7 activation was measured using the Caspase-Glo 3/7 Assay System (Promega, Madison, Wis.) by following the manufacturer's instructions."}}}
{"smiles": "CN1CCN(c2ccc(Nc3ncc4cc5n(c4n3)C3(CCCCC3)CNC5=O)nc2)CC1", "note": "[T, 2′-((5-(4-methylpiperazin-1-yl)pyridin-2-yl)amino)-7′,8′-dihydro-6′H-spiro[cyclohexane-1,9′-pyrazino[1′,2′:1,5]pyrrolo[2,3-d]pyrimidin]-6′-one]", "values": [{"measurement": "number of 395 non-mutant kinases inhibited", "setting": "[1]; inhibitory threshold 65%", "value": "92 (23.3%)"}, {"measurement": "number of 395 non-mutant kinases inhibited", "setting": "[1]; inhibitory threshold 90%", "value": "31 (7.8%)"}, {"measurement": "number of 395 non-mutant kinases inhibited", "setting": "[1]; inhibitory threshold 99%", "value": "6 (1.5%)"}, {"measurement": "proliferation (cells in S-phase by EdU)", "setting": "[2]", "value": "inhibits"}, {"measurement": "reduction in EdU+ cell frequencies", "setting": "[3]; B cell progenitors", "value": "> 80", "unit": "%"}, {"measurement": "reduction in EdU+ cell frequency", "setting": "[3]; CMP, GMP, MEP and CLP", "value": "76-92%"}, {"measurement": "reduction in EdU+ cell frequency", "setting": "[3]; Mac1+G1+ myeloid cells", "value": 46, "unit": "%"}, {"measurement": "reduction in EdU+ cell frequencies", "setting": "[3]; T cell progenitors", "value": "> 99", "unit": "%"}, {"measurement": "reduction in EdU+ cell frequency", "setting": "[3]; Ter119+ erythroid cells", "value": 58, "unit": "%"}, {"measurement": "reduction of EdU+ cell frequency", "setting": "[3]; unfractionated whole bone marrow cells", "value": "~70", "unit": "%"}, {"measurement": "inhibition at 150 mg/kg", "setting": "[3]; Hematopoietic stem cell, hematopoietic stem cells (HSC)", "value": 74, "unit": "%"}, {"measurement": "inhibition at 150 mg/kg", "setting": "[3]; multipotent progenitors (MPP)", "value": 90, "unit": "%"}, {"measurement": "growth (cells in S-phase by EdU)", "setting": "[4]", "value": "does not affect the growth"}, {"measurement": "S-phase peak", "setting": "[5]", "value": "causes a loss of the S-phase peak"}, {"measurement": "F (oral bioavailability)", "setting": "[6]", "value": 80, "unit": "%"}, {"measurement": "recovery of blood cell lineages after 5FU", "setting": "blood cell counts", "value": "more rapid recovery"}, {"measurement": "EdU incorporation into HSPCs compared to control", "setting": "HSPCs; 150 mg/kg oral gavage, 12 and 24 hours, FIG. 6A", "value": "reduction in EdU incorporation at 12 hours which was starting to return to normal at 24 hours"}, {"measurement": "time by which proliferation of HSPCs resumes", "setting": "HSPCs; single 150 mg/kg oral dose, FIG. 7", "value": "≤ 24", "unit": "h"}, {"measurement": "Rb phosphorylation", "setting": "[7]", "value": "blocks Rb phosphorylation"}, {"measurement": "cell survival (Cell TiterGlo)", "setting": "[8]; in the presence of etoposide (5 uM) or carboplatin (100 uM)", "value": "dose dependent cell survival"}, {"measurement": "DNA damage as measured by gamma-H2AX formation", "setting": "[8]; prior to carboplatin, doxorubicin, etoposide, camptothecin or paclitaxel", "value": "attenuated DNA damage"}, {"measurement": "caspase 3/7 activation", "setting": "[8]; prior to carboplatin, doxorubicin, etoposide, camptothecin, and paclitaxel", "value": "robust decrease in caspase 3/7 activation in a dose-dependent manner"}, {"measurement": "caspase 3/7 activation", "setting": "[9]; cisplatin 25 uM, 50 uM, or 100 uM", "value": "dose-dependent reduction in caspase 3/7 activation"}, {"measurement": "DNA damage as measured by gamma-H2AX formation", "setting": "[9]; in combination with 25 uM cisplatin", "value": "attenuated DNA damage"}]}
